Reference: ChEMBL document CHEMBL1275470, “Susceptibility testing and molecular classification of Paecilomyces spp” (2008)
≈ marks a conversion by molar mass, not a printed value. Starred links: 1 amine or outer side, 2 acyl side, 3 side chain; linkers in the order of their positions; H or OH if unused. Positions of bridges follow the written chain, without caps; N, C: chain ends. Non-standard residues stand in square brackets, D forms with d. Residues, ends and D or L forms follow the SMILES beside them. *: point of attachment. hTyr(3S-OH,4S-OH,3'-OSO3H) = N[C@H](C(=O)O)[C@H](O)[C@@H](O)c1ccc(O)c(OS(=O)(=O)O)c1; pTerphenylCO(4''-OnC5H11) = CCCCCOc1ccc(-c2ccc(-c3ccc(C(=O)*)cc3)cc2)cc1; Orn(4R-OH,5R-OH) = O=C([C@H](C[C@@H](O)[C@@H](O)N[*:3])N[*:1])[*:2]; hTyr(3S-OH,4S-OH) = N[C@H](C(=O)O)[C@H](O)[C@@H](O)c1ccc(O)cc1; Pro(3S-OH,4S-Me) = C[C@H]1CN[C@H](C(=O)O)[C@H]1O; X1 = CCCCCOc1ccc(-c2cc(-c3ccc(C(=O)*)cc3)no2)cc1; Gln(3R-OH) = NC(=O)C[C@@H](O)[C@H](N)C(=O)O; Hyp = O=C(O)[C@@H]1C[C@@H](O)CN1

Experiments:
Paecilomyces variotii = test: Antimicrobial activity against Paecilomyces variotii by microdilution method; assay type: functional
Paecilomyces lilacinus = test: Antimicrobial activity against Paecilomyces lilacinus by microdilution method; assay type: functional; settings: Purpureocillium lilacinum

Question: `CCCCCOc1ccc(-c2cc(-c3ccc(C(=O)N[C@H]4C[C@@H](O)[C@@H](O)NC(=O)[C@@H]5[C@@H](O)[C@@H](C)CN5C(=O)[C@H]([C@H](O)CC(N)=O)NC(=O)[C@H]([C@H](O)[C@@H](O)c5ccc(O)c(OS(=O)(=O)O)c5)NC(=O)[C@@H]5C[C@@H](O)CN5C(=O)[C@H]([C@@H](C)O)NC4=O)cc3)no2)cc1` [MICAFUNGIN] (X1-[Orn(4R-OH,5R-OH)]T[Hyp][hTyr(3S-OH,4S-OH,3'-OSO3H)][Gln(3R-OH)][Pro(3S-OH,4S-Me)]; lactam 1-C) was tested. Which MIC (Paecilomyces variotii) did it give?
Answer: 0.018 µg/mL (≈ 0.0142 µM)

Question: What about the MIC (Paecilomyces lilacinus) of the same compound?
Answer: 25.6 µg/mL (≈ 20.2 µM)

Question: What does the source list for `CCC(C)n1ncn(-c2ccc(N3CCN(c4ccc(OCC5COC(Cn6cncn6)(c6ccc(Cl)cc6Cl)O5)cc4)CC3)cc2)c1=O` (stereo not drawn) [ITRACONAZOLE]?
Answer: MIC (Paecilomyces variotii): 0.06 µg/mL (≈ 0.085 µM); MIC (Paecilomyces lilacinus): 13.4 µg/mL (≈ 19 µM)

Question: Which MIC (Paecilomyces variotii) does the source give for `C[C@@H]1[C@H](O)[C@@H](C)/C=C/C=C/C=C/C=C/C=C/C=C/C=C/[C@H](O[C@@H]2O[C@H](C)[C@@H](O)[C@H](N)[C@@H]2O)C[C@@H]2O[C@](O)(C[C@@H](O)C[C@@H](O)[C@H](O)CC[C@@H](O)C[C@@H](O)CC(=O)O[C@H]1C)C[C@H](O)[C@H]2C(=O)O` [AMPHOTERICIN B] here?
Answer: 0.04 µg/mL (≈ 0.0433 µM)

Question: And the MIC (Paecilomyces lilacinus)?
Answer: 29.6 µg/mL (≈ 32 µM)

Question: `CC[C@@H]([C@H](C)O)n1ncn(-c2ccc(N3CCN(c4ccc(OC[C@@H]5CO[C@@](Cn6cncn6)(c6ccc(F)cc6F)C5)cc4)CC3)cc2)c1=O` [POSACONAZOLE] was tested. Which MIC (Paecilomyces variotii) did it give?
Answer: 0.04 µg/mL (≈ 0.0571 µM)

Question: What about the MIC (Paecilomyces lilacinus) of the same compound?
Answer: 0.28 µg/mL (≈ 0.4 µM)

Question: Which MIC (Paecilomyces variotii) does the source give for `C[C@@H](c1nc(-c2ccc(C#N)cc2)cs1)[C@](O)(Cn1cncn1)c1ccc(F)cc1F` [RAVUCONAZOLE] here?
Answer: 4.89 µg/mL (≈ 11.2 µM)

Question: And the MIC (Paecilomyces lilacinus)?
Answer: 0.73 µg/mL (≈ 1.67 µM)

Question: What does the source list for `CCCCCOc1ccc(-c2ccc(-c3ccc(C(=O)N[C@H]4C[C@@H](O)[C@@H](O)NC(=O)[C@@H]5[C@@H](O)[C@@H](C)CN5C(=O)[C@H]([C@@H](C)O)NC(=O)[C@H]([C@H](O)[C@@H](O)c5ccc(O)cc5)NC(=O)[C@@H]5C[C@@H](O)CN5C(=O)[C@H]([C@@H](C)O)NC4=O)cc3)cc2)cc1` [ANIDULAFUNGIN] ({pTerphenylCO(4''-OnC5H11)}-[Orn(4R-OH,5R-OH)]T[Hyp][hTyr(3S-OH,4S-OH)]T[Pro(3S-OH,4S-Me)]; lactam 1-C)?
Answer: MIC (Paecilomyces variotii): 0.016 µg/mL (≈ 0.014 µM); MIC (Paecilomyces lilacinus): 27.1 µg/mL (≈ 23.8 µM)

Question: `CN(C/C=C/C#CC(C)(C)C)Cc1cccc2ccccc12` [TERBINAFINE] was tested. Which MIC (Paecilomyces variotii) did it give?
Answer: 1.53 µg/mL (≈ 5.25 µM)

Question: And the MIC (Paecilomyces lilacinus)?
Answer: 0.51 µg/mL (≈ 1.75 µM)

Question: How did the MIC (Paecilomyces variotii) turn out when `C[C@@H](c1ncncc1F)[C@](O)(Cn1cncn1)c1ccc(F)cc1F` [VORICONAZOLE] was run?
Answer: 4.18 µg/mL (≈ 12 µM)

Question: What about the MIC (Paecilomyces lilacinus) of the same compound?
Answer: 0.45 µg/mL (≈ 1.29 µM)

Question: Which MIC (Paecilomyces variotii) does the source give for `CC[C@H](C)C[C@H](C)CCCCCCCCC(=O)N[C@H]1C[C@@H](O)[C@@H](NCCN)NC(=O)[C@@H]2[C@@H](O)CCN2C(=O)[C@H]([C@H](O)CCN)NC(=O)[C@H]([C@H](O)[C@@H](O)c2ccc(O)cc2)NC(=O)[C@@H]2C[C@@H](O)CN2C(=O)[C@H]([C@@H](C)O)NC1=O` [CASPOFUNGIN] here?
Answer: 0.44 µg/mL (≈ 0.402 µM)

Question: And the MIC (Paecilomyces lilacinus)?
Answer: 27.9 µg/mL (≈ 25.5 µM)
